Data as given in ChEMBL document CHEMBL1153095, “Design, synthesis and evaluation of 4,7-diamino-1,10-phenanthroline G-quadruplex ligands” (Bioorg Med Chem, 2009).

How the values were obtained:
Assay type in all cases: nucleic-acid assay
Nucleic Acid [1] = experiment: Stabilization of 5'-d[(G3T2A)3G3]-3' quadruplex DNA assessed as change in melting temperature at 20 uM by CD-spectrophotometry
Nucleic Acid [2] = experiment: Binding affinity to 5'-d[(G3T2A)3G3]-3' quadruplex DNA by surface plasmon resonance
Nucleic Acid [3] = experiment: Stabilization of 5'-d[(G3T2A)3G3]-3' quadruplex DNA assessed as change in melting temperature at 5 uM by CD-spectrophotometry
Nucleic Acid [4] = experiment: Stabilization of 5'-d[(G3T2A)3G3]-3' quadruplex DNA assessed as change in melting temperature at 10 uM by CD-spectrophotometry
Nucleic Acid [5] = experiment: Stabilization of 5'-d[(AT)10]-3' duplex DNA assessed as melting temperature at 20 uM by CD-spectrophotometry

Q: Which results are given for NCCNc1ccnc2c1ccc1c(NCCN)ccnc12?
A: ΔTm (Nucleic Acid [1]): 9.9 °C; Kd (Nucleic Acid [2]): 720 nM; ΔTm (Nucleic Acid [3]): 2 °C; ΔTm (Nucleic Acid [4]): 7.6 °C

Q: Which results are given for CN(C)CCCCNc1ccnc2c1ccc1c(NCCCCN(C)C)ccnc12?
A: ΔTm (Nucleic Acid [1]): 14.4 °C; Kd (Nucleic Acid [2]): 330 nM; ΔTm (Nucleic Acid [3]): 2.3 °C; ΔTm (Nucleic Acid [4]): 13 °C

Q: How did the ΔTm (Nucleic Acid [1]) turn out when N=C(N)NCCNc1ccnc2c1ccc1c(NCCNC(=N)N)ccnc12 was run?
A: Its ΔTm is 13.7 °C.

Q: What about the Kd (Nucleic Acid [2]) of the same molecule?
A: The Kd was 400 nM.

Q: What about the ΔTm (Nucleic Acid [3]) of the same molecule?
A: Its ΔTm is 3 °C.

Q: What about the ΔTm (Nucleic Acid [4]) of the same molecule?
A: Its ΔTm is 9.9 °C.

Q: How did the ΔTm (Nucleic Acid [1]) turn out when Cc1ccnc2c1ccc1c(C)ccnc12 was run?
A: Its ΔTm is 0.1 °C.

Q: c1cnc2c(c1)ccc1cccnc12 was tested. Which ΔTm (Nucleic Acid [1]) did it give?
A: Its ΔTm is 0 °C.

Q: CN(C)CCNc1ccnc2c1ccc1c(NCCN(C)C)ccnc12 was tested. Which ΔTm (Nucleic Acid [1]) did it give?
A: The ΔTm was 10.5 °C.

Q: And the Kd (Nucleic Acid [2])?
A: Its Kd is 820 nM.

Q: And the ΔTm (Nucleic Acid [3])?
A: Its ΔTm is 1.8 °C.

Q: What about the ΔTm (Nucleic Acid [4]) of the same molecule?
A: Its ΔTm is 8.8 °C.

Q: Nc1ccnc2c1ccc1c(N)ccnc12 was tested. Which ΔTm (Nucleic Acid [1]) did it give?
A: The ΔTm was 1.3 °C.

Q: Which ΔTm (Nucleic Acid [1]) does the source give for NCCCCNc1ccnc2c1ccc1c(NCCCCN)ccnc12 here?
A: The ΔTm was 15.3 °C.

Q: And the Kd (Nucleic Acid [2])?
A: The Kd was 230 nM.

Q: What about the ΔTm (Nucleic Acid [3]) of the same molecule?
A: The ΔTm was 2.5 °C.

Q: What about the Tm (Nucleic Acid [5]) of the same molecule?
A: Its Tm is 57 °C.

Q: What about the ΔTm (Nucleic Acid [4]) of the same molecule?
A: The ΔTm was 14.6 °C.

Q: What does the source list for NCCCNc1ccnc2c1ccc1c(NCCCN)ccnc12?
A: ΔTm (Nucleic Acid [1]): 13.1 °C; Kd (Nucleic Acid [2]): 450 nM; ΔTm (Nucleic Acid [3]): 2.4 °C; ΔTm (Nucleic Acid [4]): 10.6 °C

Q: What does the source list for N=C(N)NCCCNc1ccnc2c1ccc1c(NCCCNC(=N)N)ccnc12?
A: ΔTm (Nucleic Acid [1]): 16.6 °C; Kd (Nucleic Acid [2]): 410 nM; ΔTm (Nucleic Acid [3]): 6 °C; ΔTm (Nucleic Acid [4]): 14.2 °C

Q: How did the ΔTm (Nucleic Acid [1]) turn out when N=C(N)NCCCCNc1ccnc2c1ccc1c(NCCCCNC(=N)N)ccnc12 was run?
A: The ΔTm was 17.3 °C.

Q: What about the Kd (Nucleic Acid [2]) of the same molecule?
A: Its Kd is 330 nM.

Q: What about the ΔTm (Nucleic Acid [3]) of the same molecule?
A: Its ΔTm is 6.1 °C.

Q: And the Tm (Nucleic Acid [5])?
A: The Tm was 63 °C.

Q: What about the ΔTm (Nucleic Acid [4]) of the same molecule?
A: Its ΔTm is 14.7 °C.

Q: With CN(C)CCCNc1ccnc2c1ccc1c(NCCCN(C)C)ccnc12 as the molecule, how does the ΔTm (Nucleic Acid [1]) read?
A: Its ΔTm is 13.3 °C.

Q: And the Kd (Nucleic Acid [2])?
A: The Kd was 300 nM.

Q: And the ΔTm (Nucleic Acid [3])?
A: The ΔTm was 1.9 °C.

Q: What about the ΔTm (Nucleic Acid [4]) of the same molecule?
A: Its ΔTm is 10.6 °C.
